This is an account of results in patent US20210361688A1 (priority 2020, published 2021).

For data set [1] the following is noted: cited from earlier work.
The subject of a further data set is pseudorabies virus (PRV). Conditions: mouse, in vivo; cited from earlier work.
In data set [2] the test system is SARS-CoV-2 isolate Australia/VIC01/2020. Conditions: cited from earlier work.
Data set [3] can be described thus: Estimated ivermectin concentration delivered into the respiratory pathways per nebulization. Conditions: about 10% of nebulized solution reaches the respiratory pathways; approx. 3 mg into 150 cc dead space. Further details: species or system human. As to the method: 3 mL of the solution was administered to the subject directly into the lungs in the form of an inhalable mist.

The mark [4] stands for this setting: ivermectin 5 μM from 2 hours post-infection, 24 h, Vero-hSLAM cells.

In general, IC50 refers to the concentration at which inhibition is half-maximal.

Consider ivermectin, for which, in data set [1] (adults or children), the “tolerability of high doses” value is reported as “well tolerated”. Also, in data set [1] (humans, highest reported dose of approximately 1700 μg/kg), the maximum plasma concentration is 0.28 µM. Further, in the data set with pseudorabies virus (PRV), the “survival in PRV-infected mice” value is on record as “increase survival”. Besides, the “IC50 concentration necessary to inhibit viral replication” value in data set [2] (as quoted in Example 2) is on record as 0.00175 mg/cc. Further, in data set [2] (setting [4]), the “reduction in viral RNA versus DMSO control, cell associated viral RNA (total virus)” value was 99.8% and the “reduction in viral RNA versus DMSO control, supernatant (released virions)” value was 93%. Also, the “fold reduction of viral RNA” value in data set [2] (ivermectin 5 μM, by hour 48, effect maintained at 72 hours) was 5000 fold. Moreover, in data set [2] (serial dilutions of ivermectin, Vero-hSLAM cells, read-out: IC50 against SARS-CoV-2), the IC50 was about 2 µM. The “ivermectin delivered per cc of dead space per nebulization” value in data set [3] is on record as “approximately 0.02 mg per cc”.
